Measurements: ChEMBL document CHEMBL5550214, “Expanding Structure-Activity Relationships of Human Urotensin II Peptide Analogues: A Proposed Key Role of the N-Terminal Region for Novel Urotensin II Receptor Modulators” (J Med Chem, 2024)
Each block holds one compound with its values, some of them ahead of it. The source made the active and inactive calls. No cut-off for these calls is given here. Where a SMILES comes first, the peptide text is derived from it. Bridges are numbered along the chain shown (N, C = ends). [ ]: non-standard residue; d: D form. Dab = NCC[C@H](N)C(=O)O

Tests used:
Aortic ring [1] = assay: Induction of contraction in Albino Wistar rat aortic ring assessed as Emax of U-II(4-11) at 1 uM incubated for 30 mins in presence of U-II(4-11) (reference value: 159.8 +/- 7.3 dyne/mg); type: functional, Aorta; conditions: 0.5 h
Aortic ring [2] = assay: Induction of contraction in Albino Wistar rat aortic ring assessed as Emax of U-II(4-11) at 10 uM incubated for 30 mins in presence of U-II(4-11) (reference value: 152.4 +/- 5.1 dyne/mg); type: functional, Aorta; conditions: 0.5 h
Aortic ring [3] = assay: Induction of contraction in Albino Wistar rat aortic ring assessed as Emax of hU-II at 1 uM incubated for 30 mins in presence of hU-II (reference value: 214.5 +/- 10.51 dyne/mg); type: functional, Aorta; conditions: 0.5 h
Aortic ring [4] = assay: Induction of contraction in Albino Wistar rat aortic ring assessed as Emax of [Ala1]U-II at 1 uM incubated for 30 mins in presence of [Ala1]U-II (reference value: 153.3 +/- 10.75 dyne/mg); type: functional, Aorta; conditions: 0.5 h
Aortic ring [5] = assay: Induction of contraction in Albino Wistar rat aortic ring assessed as Emax of hU-II at 10 uM incubated for 30 mins in presence of hU-II (reference value: 238.4 +/- 9.53 dyne/mg); type: functional, Aorta; conditions: 0.5 h
Aortic ring [6] = assay: Induction of contraction in Albino Wistar rat aortic ring assessed as Emax of [Ala1]U-II at 0.1 uM incubated for 30 mins in presence of [Ala1]U-II (reference value: 308.1 +/- 21.4 dyne/mg); type: functional, Aorta; conditions: 0.5 h
Aortic ring [7] = assay: Induction of contraction in Albino Wistar rat aortic ring at 1 to 30 nM; type: functional, tissue-based; conditions: Aorta, dose 1-30 nM
Aortic ring [8] = assay: Induction of contraction in Albino Wistar rat aortic ring assessed as Emax of U-II(4-11) at 0.1 uM incubated for 30 mins in presence of U-II(4-11) (reference value: 159.8 +/- 7.39 dyne/mg); type: functional, Aorta; conditions: 0.5 h
Aortic ring [9] = assay: Induction of contraction in Albino Wistar rat aortic ring assessed as Emax of [Ala1]U-II at 10 uM incubated for 30 mins in presence of [Ala1]U-II (reference value: 391.6 +/- 38.83 dyne/mg); type: functional, Aorta; conditions: 0.5 h
Aortic ring [10] = assay: Induction of contraction in Albino Wistar rat aortic ring assessed as Emax of hU-II at 0.1 uM incubated for 30 mins in presence of hU-II (reference value: 224.8 +/- 11.71 dyne/mg); type: functional, Aorta; conditions: 0.5 h
[11] = target: T1, Urotensin-2 receptor (Homo sapiens) (UniProt Q9UKP6); assay: Modulation of human UTR stably expressed in HEK293 cells assessed as increase in Ca2+ level at 0.1 to 100 nM by Fura 2-AM dye based calcium mobilization assay; type: functional, cell-based; conditions: dose 0.1-100 nM
T1 sequence (whole entry): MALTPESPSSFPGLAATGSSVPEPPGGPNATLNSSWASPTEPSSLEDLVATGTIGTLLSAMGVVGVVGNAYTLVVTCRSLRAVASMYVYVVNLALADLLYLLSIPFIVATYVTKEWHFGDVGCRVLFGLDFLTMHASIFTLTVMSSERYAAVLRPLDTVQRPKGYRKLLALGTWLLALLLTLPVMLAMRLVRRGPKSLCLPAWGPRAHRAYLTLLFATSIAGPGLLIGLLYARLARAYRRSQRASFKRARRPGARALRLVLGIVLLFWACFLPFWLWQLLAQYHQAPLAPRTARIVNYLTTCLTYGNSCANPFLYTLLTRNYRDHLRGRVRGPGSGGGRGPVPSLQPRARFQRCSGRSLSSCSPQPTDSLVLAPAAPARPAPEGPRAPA

[12] = target: T1, Urotensin-2 receptor (Homo sapiens); assay: Modulation of human UTR stably expressed in HEK293 cells assessed as increase in Ca2+ level at 0.01 to 1 nM by Fura 2-AM dye based calcium mobilization assay; type: functional, cell-based; conditions: filed as modulator, dose 0.01-1 nM
Aortic ring [13] = assay: Induction of contraction in Albino Wistar rat aortic ring assessed as Emax of [Ala1]U-II at 1 uM incubated for 30 mins in presence of [Ala1]U-II (reference value: 220.3 +/- 17.48 dyne/mg); type: functional, Aorta; conditions: 0.5 h
Aortic ring [14] = assay: Induction of contraction in Albino Wistar rat aortic ring assessed as Emax of hU-II at 0.1 uM incubated for 30 mins in presence of hU-II (reference value: 279.9 +/- 11.02 dyne/mg); type: functional, Aorta; conditions: 0.5 h
Aortic ring [15] = assay: Induction of contraction in Albino Wistar rat aortic ring assessed as Emax of hU-II at 1 uM incubated for 30 mins in presence of hU-II (reference value: 251.4 +/- 15.43 dyne/mg); type: functional, Aorta; conditions: 0.5 h
Aortic ring [16] = assay: Induction of contraction in Albino Wistar rat aortic ring assessed as Emax of [Ala1]U-II at 10 uM incubated for 30 mins in presence of [Ala1]U-II (reference value: 308.1 +/- 21.4 dyne/mg); type: functional, Aorta; conditions: 0.5 h
Aortic ring [17] = assay: Induction of contraction in Albino Wistar rat aortic ring assessed as Emax of [Ala1]U-II at 0.1 uM incubated for 30 mins in presence of [Ala1]U-II (reference value: 323 +/- 30.45 dyne/mg); type: functional, Aorta; conditions: 0.5 h
Aortic ring [18] = assay: Induction of contraction in Albino Wistar rat aortic ring assessed as Emax of hU-II at 10 uM incubated for 30 mins in presence of hU-II (reference value: 224.8 +/- 11.71 dyne/mg); type: functional, Aorta; conditions: 0.5 h
Aortic ring [19] = assay: Induction of contraction in Albino Wistar rat aortic ring at 1 to 30 nM relative to control; type: functional, Aorta; conditions: dose 1-30 nM
Aortic ring [20] = assay: Induction of contraction in Albino Wistar rat aortic ring assessed as Emax of U-II(4-11) at 1 uM incubated for 30 mins in presence of U-II(4-11) (reference value: 159.8 +/- 7.39 dyne/mg); type: functional, Aorta; conditions: 0.5 h
Aortic ring [21] = assay: Induction of contraction in Albino Wistar rat aortic ring assessed as Emax of U-II(4-11) at 0.1 uM incubated for 30 mins in presence of U-II(4-11) (reference value: 242.6 +/- 20.63 dyne/mg); type: functional, Aorta; conditions: 0.5 h
Aortic ring [22] = assay: Induction of contraction in Albino Wistar rat aortic ring assessed as Emax of [Ala1]U-II at 0.1 uM incubated for 30 mins in presence of [Ala1]U-II (reference value: 220.3 +/- 17.48 dyne/mg); type: functional, Aorta; conditions: 0.5 h
Aortic ring [23] = assay: Induction of contraction in Albino Wistar rat aortic ring assessed as Emax of [Ala1]U-II at 1 uM incubated for 30 mins in presence of [Ala1]U-II (reference value: 308.1 +/- 21.4 dyne/mg); type: functional, Aorta; conditions: 0.5 h
Aortic ring [24] = assay: Induction of contraction in Albino Wistar rat aortic ring assessed as Emax of [Ala1]U-II at 10 uM incubated for 30 mins in presence of [Ala1]U-II (reference value: 153.3 +/- 10.75 dyne/mg); type: functional, Aorta; conditions: 0.5 h
Aortic ring [25] = assay: Induction of contraction in Albino Wistar rat aortic ring assessed as Emax of U-II(4-11) at 10 uM incubated for 30 mins in presence of U-II(4-11) (reference value: 159.8 +/- 7.3 dyne/mg); type: functional, Aorta; conditions: 0.5 h

Activity ([11]; filed as modulator): Active
Structure (SMILES): CC(C)[C@H](NC(=O)[C@@H]1CSSC(C)(C)[C@H](NC(=O)[C@H](CC(=O)O)NC(=O)[C@@H]2CCCN2C(=O)[C@@H](NC(=O)[C@@H](N)CCC(=O)O)[C@@H](C)O)C(=O)N[C@@H](Cc2ccccc2)C(=O)N[C@H](Cc2c[nH]c3ccccc23)C(=O)N[C@@H](CCCN)C(=O)N[C@@H](Cc2ccc(O)cc2)C(=O)N1)C(=O)O
Emax (Aortic ring [1]): 166.6 dyn/mg | Emax (Aortic ring [2]): 231 dyn/mg | Emax (Aortic ring [3]): 143.5 dyn/mg | Emax (Aortic ring [4]): 146.8 dyn/mg | Emax (Aortic ring [5]): 327 dyn/mg | Emax (Aortic ring [6]): 216.19 dyn/mg | Activity (Aortic ring [7]): inactive | Emax (Aortic ring [8]): 223.4 dyn/mg | Emax (Aortic ring [9]): 727.7 dyn/mg | Emax (Aortic ring [10]): 251.6 dyn/mg

Activity [11]: inactive
Structure (SMILES): CC(C)[C@H](NC(=O)[C@@H]1CSSC(C)(C)[C@H](NC(=O)[C@H](CC(=O)O)NC(=O)[C@@H]2CCCN2C(=O)[C@@H](NC(=O)[C@@H](N)CCN)[C@@H](C)O)C(=O)N[C@@H](Cc2ccccc2)C(=O)N[C@H](Cc2c[nH]c3ccccc23)C(=O)N[C@@H](CCCN)C(=O)N[C@@H](Cc2ccc(O)cc2)C(=O)N1)C(=O)O
Emax (Aortic ring [1]): 166.4 dyn/mg | Emax (Aortic ring [2]): 119.5 dyn/mg | Emax (Aortic ring [13]): 99.6 dyn/mg | Emax (Aortic ring [14]): 164 dyn/mg | Emax (Aortic ring [15]): 397 dyn/mg | Emax (Aortic ring [16]): 141.2 dyn/mg | Emax (Aortic ring [17]): 38.23 dyn/mg | Emax (Aortic ring [18]): 208.6 dyn/mg | Activity (Aortic ring [7]): inactive | Emax (Aortic ring [8]): 98.9 dyn/mg

Second part, the compound before the results:

Structure (SMILES): CC(C)[C@H](NC(=O)[C@@H]1CSSC[C@H](NC(=O)[C@H](CC(=O)O)NC(=O)[C@@H]2CCCN2C(=O)[C@@H](NC(=O)[C@H](C)N)[C@@H](C)O)C(=O)N[C@@H](Cc2ccccc2)C(=O)N[C@@H](Cc2c[nH]c3ccccc23)C(=O)N[C@@H](CCCCN)C(=O)N[C@@H](Cc2ccc(O)cc2)C(=O)N1)C(=O)O (H-ATPDCFWKYCV-OH; disulfide 5-10)
Activity [12]: Active

Structure (SMILES): CC(C)[C@H](NC(=O)[C@@H]1CSSC[C@H](NC(=O)[C@H](CC(=O)O)NC(=O)[C@@H]2CCCN2C(=O)[C@@H](NC(=O)[C@@H](N)CCN)[C@@H](C)O)C(=O)N[C@@H](Cc2ccccc2)C(=O)N[C@@H](Cc2c[nH]c3ccccc23)C(=O)N[C@@H](CCCCN)C(=O)N[C@@H](Cc2ccc(O)cc2)C(=O)N1)C(=O)O (H-[Dab]TPDCFWKYCV-OH; disulfide 5-10)
Emax (Aortic ring [19]): 97.78 dyn/mg

Structure (SMILES): CC(C)[C@H](NC(=O)[C@@H]1CSSC(C)(C)[C@H](NC(=O)[C@H](CC(=O)O)NC(=O)[C@@H]2CCCN2C(=O)[C@@H](NC(=O)[C@H](C)N)[C@@H](C)O)C(=O)N[C@@H](Cc2ccccc2)C(=O)N[C@H](Cc2c[nH]c3ccccc23)C(=O)N[C@@H](CCCN)C(=O)N[C@@H](Cc2ccc(O)cc2)C(=O)N1)C(=O)O
Emax (Aortic ring [20]): 248.2 dyn/mg | Emax (Aortic ring [3]): 315.6 dyn/mg | Emax (Aortic ring [21]): 263 dyn/mg | Emax (Aortic ring [5]): 320.8 dyn/mg | Emax (Aortic ring [22]): 373.5 dyn/mg | Emax (Aortic ring [23]): 121.9 dyn/mg | Emax (Aortic ring [24]): 285 dyn/mg | Activity (Aortic ring [7]): inactive | Emax (Aortic ring [10]): 264.3 dyn/mg | Activity ([11]; filed as modulator): Active | Emax (Aortic ring [25]): 541.8 dyn/mg
